The assay has as its target Sodium-dependent dopamine transporter (Rattus norvegicus, UniProt P23977). Briefly: Ability to displace [3H]WIN-35428 from dopamine transporter in rat caudate putamen tissue. The class given is tissue-based.
Chain of Sodium-dependent dopamine transporter (P23977 whole entry): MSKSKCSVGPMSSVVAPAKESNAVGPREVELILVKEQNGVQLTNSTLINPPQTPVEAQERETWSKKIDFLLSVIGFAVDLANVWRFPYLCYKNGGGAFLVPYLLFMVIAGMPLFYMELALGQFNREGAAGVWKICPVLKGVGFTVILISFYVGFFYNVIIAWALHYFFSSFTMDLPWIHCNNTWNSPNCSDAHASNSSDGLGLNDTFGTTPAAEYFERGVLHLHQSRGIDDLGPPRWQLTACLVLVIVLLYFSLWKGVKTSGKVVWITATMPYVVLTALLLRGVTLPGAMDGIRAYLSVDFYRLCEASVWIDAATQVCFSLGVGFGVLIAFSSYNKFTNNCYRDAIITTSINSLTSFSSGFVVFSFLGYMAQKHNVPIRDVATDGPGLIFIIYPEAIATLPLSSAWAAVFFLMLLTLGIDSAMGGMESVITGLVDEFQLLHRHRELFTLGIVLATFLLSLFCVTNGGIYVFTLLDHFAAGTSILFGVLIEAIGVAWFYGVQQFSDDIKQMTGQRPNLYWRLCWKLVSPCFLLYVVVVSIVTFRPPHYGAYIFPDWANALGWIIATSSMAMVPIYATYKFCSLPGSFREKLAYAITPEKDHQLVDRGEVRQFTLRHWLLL
As usually defined, the IC50 is the concentration needed to halve the response being measured. The compound `OC1(c2ccc(CN3CCCCC3)cc2)c2ccccc2C2=NCCCN21` (configuration not stated) returned an IC50 of 1200 nM. That is a single-digit micromolar value.

`O=C(c1ccc(Cl)cc1)c1ccccc1-c1ncc[nH]1` displayed an IC50 of 2800 nM. Against the preceding compound, the IC50 is about 2.3-fold higher.

`COc1ccc(C2(O)c3ccccc3C3=NCCCN32)cc1OC` (configuration not stated) had an IC50 of 87 nM.

`OC1(c2ccc(Cl)cc2)c2ccccc2C2=NCCCN21` (configuration not stated) had an IC50 of 1 nM.

As for `Oc1ccc(C2(O)c3ccccc3C3=NCCCN32)cc1` (configuration not stated), the IC50 was determined as 3.4 nM.

In turn, `OC1(c2cccnc2)c2ccccc2C2=NCCN21` (configuration not stated) returned an IC50 of 640 nM.

As for `[O-][S+](c1ccc(Cl)cc1)c1ccccc1C1=NCCN1` (configuration not stated), the half-maximal inhibitory concentration (IC50) turned out to be 7300 nM. Against the preceding compound, the IC50 is about 11-fold higher.

Compound `OC1(c2ccc(C(F)(F)F)cc2)c2ccccc2C2=NCCN21` (configuration not stated) had an IC50 of 290 nM.

In the case of `CN(C)Cc1ccc(C2(O)c3ccccc3C3=NCCN32)cc1` (configuration not stated), the concentration for half-maximal inhibition (IC50) came out at 2800 nM. Against the preceding compound, the IC50 is about 9.7-fold higher.

Compound `COC(=O)c1ccc(C2(O)c3ccccc3C3=NCCN32)cc1` (configuration not stated) gave an IC50 of 3300 nM.

The compound `Clc1ccc(Sc2ccccc2C2=NCCN2)cc1` gave an IC50 of 320 nM.

`OC1(c2ccc3ccccc3c2)c2ccccc2C2=NCCN21` (configuration not stated): the IC50 stood at 23 nM.

Compound `Cn1ccnc1-c1ccccc1C(=O)c1ccc(Cl)cc1` yielded an IC50 of 4300 nM.

As to `OC1(c2ccccn2)c2ccccc2C2=NCCN21` (configuration not stated), the half-inhibitory concentration (IC50) was found to be 3700 nM.

Take `COc1ccc(C2(O)c3ccccc3C3=NCCCN32)cc1` (configuration not stated): the IC50 came out at 2.5 nM.

`OC1(c2cccc(C(F)(F)F)c2)c2ccccc2C2=NCCN21` (configuration not stated): the half-maximal inhibitory concentration (IC50) stood at 230 nM.

Take `O=S(=O)(c1ccc(Cl)cc1)c1ccccc1C1=NCCN1`: the IC50 is 6500 nM.

The compound `OC1(c2ccc(Cl)cc2)c2ccc3ccccc3c2C2=NCCN21` (configuration not stated) showed a half-inhibitory concentration (IC50) of 16 nM.

Consider `CC1(C)COC(c2ccc(C(=O)c3ccc(Cl)cc3)cc2)=N1`, for which the IC50 came out at 1900 nM.

For the compound `OC1(C/C=C/c2ccccc2)c2ccccc2C2=NCCN21` (configuration not stated), the IC50 is 9300 nM.

`OC1(C23C[C@H]4C[C@@H](C2)C[C@@H](C3)C4)c2ccccc2C2=NCCN21` (some centres not stated) displayed an IC50 of 4900 nM. Against the preceding compound, the IC50 is about 1.9-fold lower.

Compound `OC1(c2ccc(Cl)cc2)c2cccc3cccc(c23)C2=NCCCN21` (configuration not stated) had a 50% inhibitory concentration (IC50) of 42 nM.

With `O=C(c1ccc(Cl)cc1)c1cccc(C2=NCCN2)c1`, the IC50 was 2200 nM.

`Clc1ccc(Oc2ccccc2C2=NCCN2)cc1` showed a concentration for half-maximal inhibition (IC50) of 190 nM. This IC50 lies about 12-fold lower than the previous one.

`OC1(c2ccc(Cl)cc2)c2ccccc2C2=N[C@@H]3CCCC[C@H]3N21` (some centres not stated) registered an IC50 of 34 nM. This IC50 is about 5.6-fold lower than that of the compound before.

Regarding `OC1(c2ccc(Cl)cc2)c2ccc3ccccc3c2C2=NCCCN21` (configuration not stated), the 50% inhibitory concentration (IC50) worked out at 37 nM. The IC50 values of the last two compounds are within 1.5-fold of each other.

Take `OC1CN=C2c3ccccc3C(O)(c3ccc(Cl)cc3)N2C1` (configuration not stated): the half-maximal inhibitory concentration (IC50) came out at 10 nM.

On to `CC1(C2(O)c3ccccc3C3=NCCN32)CCCCC1` (configuration not stated), for which the IC50 was 3500 nM.

Take `Clc1ccc(Cc2ccccc2C2=NCCN2)cc1`: the 50% inhibitory concentration (IC50) is 4000 nM.

With `CC1(C)COC(c2ccccc2C(=O)c2ccc(Cl)cc2)=N1`, the IC50 was 560 nM.

Take `COc1ccc(C2(O)c3ccccc3C3=NCCN32)cc1OC` (configuration not stated): the IC50 came out at 6900 nM.

With `OC1(c2ccncc2)c2ccccc2C2=NCCN21` (configuration not stated), the IC50 stood at 63 nM.

`CC(C)(C)C1(O)c2ccccc2C2=NCCN21` (configuration not stated) returned a concentration for half-maximal inhibition (IC50) of 9500 nM. Against the preceding compound, the IC50 is about 150-fold higher.

Consider `OC(c1ccc(Cl)cc1)c1ccc(C2=NCCN2)cc1` (configuration not stated), for which the IC50 was found to be 1600 nM. Against the preceding compound, the IC50 is about 5.9-fold lower.

On to `C=CCOc1ccc(C2(O)c3ccccc3C3=NCCCN32)cc1` (configuration not stated), for which the IC50 amounted to 72 nM. Compared with the last compound, the IC50 is about 22-fold lower.

Compound `Cc1ccc(C2(O)c3ccccc3C3=NCCN32)cc1` (configuration not stated) yielded an IC50 of 93 nM.

In turn, `OC1(c2ccc3ccccc3c2)c2ccc3ccccc3c2C2=NCCN21` (configuration not stated) yielded a concentration for half-maximal inhibition (IC50) of 38 nM.

Regarding `OC1(c2ccc(COc3ccccc3)cc2)c2ccccc2C2=NCCN21` (configuration not stated), the concentration for half-maximal inhibition (IC50) turned out to be 720 nM.

`CC1(C)COC(c2cccc(C(O)c3ccc(Cl)cc3)c2)=N1` (configuration not stated) showed an IC50 of 16000 nM.

The compound `OC1(c2ccc(OCc3ccccc3)cc2)c2ccccc2C2=NCCCN21` (configuration not stated) came in with an IC50 of 100 nM. Compared with the last compound, the IC50 is about 160-fold lower.

Compound `OC(c1ccc(Cl)cc1)c1ccccc1C1=NCCN1` (stereo in doubt; 53) gave an IC50 of 190 nM. This IC50 lies about 1.9-fold higher than the previous one.

Compound `OC(c1ccc(Cl)cc1)c1ccccc1C1=NCCN1` (stereo in doubt; 54) gave an IC50 of 2700 nM. Compared with the last compound, the IC50 is about 14-fold higher.
